Reference: the supplement of paper PMC10307832

What was measured:
Assay in all cases: relative viability (nuclei count vs DMSO), 5 days (fraction); higher = more cells survive
[1] = compound: Cn1cnc2c(F)c(Nc3ccc(Br)cc3Cl)c(C(=O)NOCCO)cc21 [Selumetinib] + CC(=O)c1c(C)c2cnc(Nc3ccc(N4CCNCC4)cn3)nc2n(C2CCCC2)c1=O [Palbociclib] (partner 0.5 µM)
In short: (§1)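 Dosing by pin tool came one day after lung cancer cell lines were seeded in 1536-well plates, using either one drug or a fixed anchor-drug dose plus five library-drug doses (not always all listed) in √10 steps. After 5 days, nuclei were counted on 4× images. Relative viability is treated-well nuclei count divided by vehicle-well nuclei count, and values are medians of duplicate plates.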

[2] = compound: CC1(C)CCC(CN2CCN(c3ccc(C(=O)NS(=O)(=O)c4ccc(NCC5CCOCC5)c([N+](=O)[O-])c4)c(Oc4cnc5[nH]ccc5c4)c3)CC2)=C(c2ccc(Cl)cc2)C1 [Venetoclax] + CCNC(=O)c1noc(-c2cc(C(C)C)c(O)cc2O)c1-c1ccc(CN2CCOCC2)cc1 [Luminespib] (partner 0.01 µM)
In short: as §1

[3] = compound: CC1(C)CCC(CN2CCN(c3ccc(C(=O)NS(=O)(=O)c4ccc(NCC5CCOCC5)c([N+](=O)[O-])c4)c(Oc4cnc5[nH]ccc5c4)c3)CC2)=C(c2ccc(Cl)cc2)C1 [Venetoclax] + CC(=O)c1c(C)c2cnc(Nc3ccc(N4CCNCC4)cn3)nc2n(C2CCCC2)c1=O [Palbociclib] (partner 0.5 µM)
In short: as §1

[4] = compound: CC1(C)CCC(CN2CCN(c3ccc(C(=O)NS(=O)(=O)c4ccc(NCC5CCOCC5)c([N+](=O)[O-])c4)c(Oc4cnc5[nH]ccc5c4)c3)CC2)=C(c2ccc(Cl)cc2)C1 [Venetoclax] + NC(=O)Nc1cc(-c2cccc(F)c2)sc1C(=O)N[C@H]1CCCNC1 [AZD7762] (partner 0.2 µM)
In short: as §1

Cell Line | relative viability ([1]; first compound 0.02 µM) | relative viability ([1]; first compound 0.06325 µM) | relative viability ([1]; first compound 0.2 µM) | relative viability ([1]; first compound 0.6325 µM) | relative viability ([2]; first compound 0.01 µM) | relative viability ([2]; first compound 0.03162 µM) | relative viability ([2]; first compound 0.1 µM) | relative viability ([2]; first compound 0.3162 µM) | relative viability ([2]; first compound 1 µM) | relative viability ([3]; first compound 0.01 µM) | relative viability ([3]; first compound 0.03162 µM) | relative viability ([3]; first compound 0.1 µM) | relative viability ([3]; first compound 0.3162 µM) | relative viability ([3]; first compound 1 µM) | relative viability ([4]; first compound 0.01 µM) | relative viability ([4]; first compound 0.03162 µM) | relative viability ([4]; first compound 0.1 µM) | relative viability ([4]; first compound 0.3162 µM) | relative viability ([4]; first compound 1 µM)
HCC-15 | 0.564 | 0.537 | 0.355 | 0.253 | 0.479 | 0.318 | 0.308 | 0.316 | 0.181 | 0.755 | 0.672 | 0.419 | 0.655 | 0.508 | 1.29 | 1.28 | 1.15 | 1.16 | 1.36
NCI-H1666 | 0.669 | 0.649 | 0.699 | 0.668 | 0.894 | 1.08 | 0.953 | 0.973 | 0.996 | 0.625 | 0.656 | 0.631 | 0.627 | 0.656 | 0.915 | 0.849 | 0.715 | 0.839 | 0.803
NCI-H1395 | 0.561 | 0.558 | 0.574 | 0.54 | 0.661 | 0.805 | 0.517 | 0.793 | 0.658 | 0.62 | 0.609 | 0.576 | 0.603 | 0.58 | 0.402 | 0.442 | 0.392 | 0.434 | 0.405
LCLC-97TM1 | 0.188 | 0.213 | 0.163 | 0.19 | 0.709 | 0.397 | 0.717 | 0.727 | 0.771 | 0.231 | 0.217 | 0.202 | 0.208 | 0.212 | 0.323 | 0.26 | 0.263 | 0.266 | 0.25
HCC-827 | 0.497 | 0.469 | 0.465 | 0.401 | 0.657 | 0.641 | 0.237 | 0.509 | 0.694 | 0.526 | 0.627 | 0.463 | 0.442 | 0.534 | 0.27 | 0.258 | 0.302 | 0.224 | 0.183
NCI-H1651 | 0.512 | 0.501 | 0.475 | 0.489 | 0.872 | 0.882 | 0.817 | 0.8 | 0.79 | 0.529 | 0.537 | 0.536 | 0.545 | 0.528 | 0.505 | 0.481 | 0.486 | 0.428 | 0.386
EKVX | 0.285 | 0.278 | 0.227 | 0.186 | 0.87 | 0.89 | 0.923 | 0.833 | 0.884 | 0.438 | 0.397 | 0.378 | 0.331 | 0.363 | 0.698 | 0.766 | 0.743 | 0.695 | 0.671
LK-2 | 0.772 | 0.851 | 0.706 | 0.802 | 0.186 | 0.204 | 0.185 | 0.157 | 0.182 | 0.681 | 0.682 | 0.815 | 0.65 | 0.688 | 0.634 | 0.673 | 0.461 | 0.356 | 0.381
ABC-1 | 0.642 | 0.672 | 0.555 | 0.5 | 0.553 | 0.53 | 0.689 | 0.431 | 0.912 | 0.802 | 0.796 | 0.564 | 0.618 | 0.797 | 0.631 | 0.955 | 0.929 | 0.888 | 0.878
SW 900 | 0.597 | 0.461 | 0.446 | 0.495 | 0.163 | 0.153 | 0.197 | 0.168 | 0.182 | 0.506 | 0.516 | 0.497 | 0.552 | 0.498 | 0.538 | 0.696 | 0.59 | 0.715 | 0.668
PC-3 [JPC-3] | 0.484 | 0.566 | 0.515 | 0.571 | 0.673 | 0.661 | 0.667 | 0.688 | 0.668 | 0.561 | 0.533 | 0.583 | 0.558 | 0.517 | 0.787 | 0.828 | 0.89 | 0.836 | 0.744
A-427 | 0.503 | 0.496 | 0.51 | 0.538 | 0.903 | 0.847 | 0.889 | 1.07 | 0.891 | 0.469 | 0.595 | 0.498 | 0.507 | 0.516 | 0.752 | 0.762 | 0.674 | 0.784 | 0.709
NCI-H1975 | 0.517 | 0.509 | 0.467 | 0.388 | 0.241 | 0.212 | 0.191 | 0.172 | 0.251 | 0.667 | 0.672 | 0.506 | 0.515 | 0.534 | 0.737 | 0.709 | 0.672 | 0.822 | 0.67
LU99A | 0.427 | 0.418 | 0.375 | 0.425 | 0.232 | 0.256 | 0.262 | 0.227 | 0.37 | 0.377 | 0.465 | 0.384 | 0.39 | 0.427 | 0.343 | 0.391 | 0.251 | 0.367 | 0.307
NCI-H1755 | 0.41 | 0.437 | 0.444 | 0.422 | 0.534 | 0.452 | 0.556 | 0.348 | 0.55 | 0.463 | 0.469 | 0.481 | 0.461 | 0.448 | 0.445 | 0.471 | 0.379 | 0.386 | 0.411
